According to patent US20230099441A1, “HETEROCYCLIC COMPOUND, APPLICATION THEREOF, AND COMPOSITION CONTAINING SAME” (GenEros Biopharma Ltd., priority 2019, published 2023):

Each compound was assayed on STAT5 Y694 phosphorylation (assay: HTRF experiment: STAT5 Y694 phosphorylation in Hela cells stimulated with human interferon beta). Conditions: 2 hours pretreatment, 10 nM human interferon beta 30 minutes.
Format: cell-based
Description: Example of Effect 3: HTRF Experiment
Human Interferon 3 (IFN-0) (GenScript, Cat #P01574), STAT5 Y694 phosphorylation detection kit (STAT5 phospho-Y694 kit) (Cisbio; Cat #64AT5PEG).
Hela cells (ATCC American Standard Culture Center, CCL-2) were cultured in a 96-well plate at a density of 3×10^4 cells/well with DMEM medium containing 5% fetal bovine serum and maintained at 37° C. in a humidified incubator with 5% carbon dioxide overnight. On the second day, the original DMEM medium in the 96-well plate was sucked dry, and an equal volume of medium containing different concentrations of compounds (the mother liquor of the compound prepared by dimethyl sulfoxide was diluted in the medium at the required concentration) was added for pretreatment for 2 hours, and then it was placed in an incubator at 37° C. Then human interferon beta with a final concentration of 10 nM was added to stimulate, and it was gently shaken to mix well and then placed in an incubator at 37° C. for 30 minutes.
The medium was removed, an appropriate volume of PBS was added to wash, and then it was sucked dry. Then 40 microliters of 1× Lysis Buffer was added to each well and it was stood for 30 minutes at room temperature (1 ml 1× lysate preparation: 740 μl ddH2O was added to 250 μl 4× lysate and 10 μl Blocking reagent and it was mixed thoroughly). After 30 minutes, the cells were repeatedly blown until the lysis solution was not viscous (avoiding blowing out bubbles) to achieve sufficient lysis.
After overnight incubation, the signals of 665 nm and 620 nm were detected in a multifunctional microplate reader. The calculation formula for the detection of STAT5 Y694 phosphorylation is: Ratio=[(signal 665 nm)/(signal 620 nm)]×10^4. Treatment with dimethyl sulfoxide alone was the baseline control (Ratiobase), and the human interferon β stimulation without addition of the compound was the STAT5 Y694 full phosphorylation activation control (Ratiostimulation), the inhibition rate of STAT5 Y694 phosphorylation of different samples was normalized: Inhibition rate=[1−(RatioExperiment−Ratiobase)/(Ratiostimulation−Ratiobase)]*100.

| Structure (SMILES) | Example of Effect 3: Inhibiting Ratio@10 μM (HTRF Experiment) [%] |
| --- | --- |
| O=C(Cc1ccc(C(F)(F)F)cc1)N1CCC(Nc2ccccc2O)CC1 [GEN1-056, 1-(4-((2-hydroxyphenyl)amino)piperidin-1-yl)-2-(4-(trifluoromethyl)phenyl)ethenone] | 13.93 |
| O=C(Cc1ccc(C(F)(F)F)cc1)NCCn1c(=O)[nH]c2ccccc21 [GEN1-062, N-(2-(2-oxo-2,3-dihydro-1H-benzo[d]imidazol-1-yl)ethyl)-2-(4-(trifluoromethyl)phenyl)acetamide] | 5.12 |
| O=C(Cc1ccc2[nH]ccc2c1)N1CCC(n2c(=O)[nH]c3ccccc32)CC1 [GEN1-077, 3-[1-[2-(1H-indol-5-yl)acetyl]-4-piperidinyl]-1H-benzimidazol-2-one] | 34.25 |
| CS(=O)(=O)Nc1ccc(CC(=O)N2CCC(n3c(=O)[nH]c4ccccc43)CC2)cc1 [GEN1-110] | −10.49 |
| O=C(Cc1ccc(C(F)(F)F)cc1)N1CCC(N2CC(=S)Nc3ccccc32)CC1 [GEN1-133] | 31.27 |

Each compound was assayed on STAT5 Y694 phosphorylation (assay: Protein electrophoresis and blotting of STAT5 Y694 phosphorylation in Jurkat cells stimulated with human interferon beta). Conditions: observed pSTAT5 bands at 10 μM and 100 μM.
Format: cell-based
Description: Example of Effect 1: Protein Electrophoresis and Blotting Experiment
Standard protein electrophoresis and chemiluminescence imaging equipment (Bio-Rad);
Protein lysate RIPA (Lianke Biological; Cat #WB020); Western blot transfer membrane PVDF (Millipore; Cat #IPVH00010);
Jurkat cells (ATCC American Standard Culture Center, TIB152) were cultured in a 6-well plate at a density of 1×10^6/ml with RPMI medium […] 10% fetal bovine serum in a humidified incubator at 37° C. and maintained at 5% carbon dioxide overnight. On the second day, the cells were pretreated with compounds of different concentrations (the mother liquor of the compound prepared by dimethyl sulfoxide was diluted in the medium at the required concentration) for 1 hour, and then stimulated with 20 ng/ml human interferon beta for 30 minutes, it was mixed thoroughly and then placed in an incubator at 37° C. environment. […] Then an appropriate volume of RIPA Lysis Solution was added, it was mixed well, and placed on ice for 1 hour, inverted and mixed several times in the middle. Then, the cell lysate was centrifuged at 12000 rpm at 4° C. for 10 minutes, and the supernatant was transferred to another test tube, aliquoted and stored at −20° C. until use.
An equal volume of protein lysate was mixed with an appropriate 6-fold protein loading buffer (Biyun Tian Biochemical Company P0015F), and the mixture was heated at 95 degrees for 10 minutes, after full denaturation, the protein sample was added to the polyacrylamide gel (self-made, raw material purchased from Soleibao Biotechnology Company A1010, 30% acrylamide solution), and electrophoresis was performed at the appropriate voltage for 1 hour, until the strips were fully separated. It was transferred to a polyvinylidene fluoride membrane according to standard procedures, and blocked with 5% skim milk for 1 hour, and the specified antibody was added, and it was diluted 1:1000 in 3% bovine serum albumin, and it was incubated overnight for four degrees. It was thoroughly rinsed, incubated with the secondary antibody, exposed to chemiluminescence and signals were collected. ImageJ software was used to quantify the obtained chemiluminescence results. The same area was selected, the gray values of STAT5 phosphorylation band and GAPDH band of each sample were analyzed, and the ratio of pSTAT5/GAPDH level was calculated. The value of the solvent-treated sample was 100%, and the remaining samples were converted into relative data in the same proportion, that is, the percentage corresponding to the solvent sample. […] The solvent control group was the same as the test compound group except that DMSO was used instead of the DMSO solution of the test compound. N1 (Pimozide) was a specific positive control.

| Structure (SMILES) | Example of Effect 1: Inhibiting Ability (Protein Electrophoresis and Blotting) |
| --- | --- |
| O=c1c2ccc(-n3c(=O)[nH]c4ccccc43)cc2ccn1-c1ccc(C(F)(F)F)cc1 [GEN1-086, 6-(2-oxo-2,3-dihydro-1H-benzo[d]imidazol-1-yl)-2-(4-(trifluoromethyl)phenyl)isoquinoline-1(2H)-one] | − |
| CC(C)(C)c1ccc2[nH]c(=O)n(C3CCN(C(=O)Cc4ccc(C(F)(F)F)cc4)CC3)c2c1 [GEN1-088, 6-(tert-butyl)-1-(1-(2-(4-(trifluoromethyl)phenyl)acetyl)piperidin-4-yl)-1H-benzo[d]imidazol-2(3H)-one] | + |
| O=C(Cc1ccc(C(F)(F)F)cc1)N1CCC(n2c(=O)[nH]c3ccc(-c4ccccc4)cc32)CC1 [GEN1-090, 6-phenyl-1-(1-(2-(4-(trifluoromethyl)phenyl)acetyl)piperidin-4-yl)-1H-benzo[d]imidazol-2(3H)-one] | + |
| NS(=O)(=O)c1cccc2[nH]c(=O)n(C3CCN(C(=O)Cc4ccc(C(F)(F)F)cc4)CC3)c12 [GEN1-094, 2-oxo-3-(1-(2-(4-(trifluoromethyl)phenyl)acetyl)piperidin-4-yl)-2,3-dihydro-1H-benzo[d]imidazol-4-sulfonamide] | + |
| NC(=O)c1cccc2[nH]c(=O)n(C3CCN(C(=O)Cc4ccc(C(F)(F)F)cc4)CC3)c12 [GEN1-095, 2-oxo-3-(1-(2-(4-(trifluoromethyl)phenyl)acetyl)piperidin-4-yl)-2,3-dihydro-1H-benzo[d]imidazol-4-carboxamide] | − |
| O=C(Cc1ccc2c(c1)OCO2)N1CCC(n2c(=O)[nH]c3ccccc32)CC1 [GEN1-096, 1-(1-(2-(benzo[d][1,3]dioxol-5-yl)acetyl)piperidin-4-yl)-1H-benzo[d]imidazol-2(3H)-one] | + |
| CN(C)c1ccc(CC(=O)N2CCC(n3c(=O)[nH]c4ccccc43)CC2)cc1 [GEN1-097, 1-(1-(2-(4-(dimethylamino)phenyl)acetyl)piperidin-4-yl)-1H-benzo[d]imidazol-2(3H)-one] | + |
| O=C(CC12CC3CC(CC(C3)C1)C2)N1CCC(n2c(=O)[nH]c3ccccc32)CC1 [GEN1-098, 1-(1-(2-(adamantan-1-yl)acetyl)piperidin-4-yl)-1H-benzo[d]imidazol-2(3H)-one] | + |
| O=C1CN(C2CCN(C(=O)Cc3ccc(C(F)(F)F)cc3)CC2)c2c(cccc2[N+](=O)[O-])N1 [GEN1-101, 5-nitro-4-(1-(2-(4-(trifluoromethyl)phenyl)acetyl)piperidin-4-yl)-3,4-dihydroquinoxaline-2(1H)-one] | + |
| O=C1CCN(C2CCN(C(=O)Cc3ccc(C(F)(F)F)cc3)CC2)c2ccccc2N1 [GEN1-102, 5-(1-(2-(4-(trifluoromethyl)phenyl)acetyl)piperidin-4-yl)-4,5-dihydro-1H-benzo[b][1,4]diazepine-2(3H)-one] | + |
| CC(C)(C)c1ccc(CC(=O)N2CCC(n3c(=O)[nH]c4cccc(C(F)(F)F)c43)CC2)cc1 [GEN1-115, 1-(1-(2-(4-(tert-butyl)phenyl)acetyl)piperidin-4-yl)-7-(trifluoromethyl)-1^1H-benzo[d]imidazol-2(3H)-one] | + |
| O=C1CN(C2CCN(C(=O)Cc3ccc4ncccc4c3)CC2)c2ccccc2N1 [GEN1-120, 4-(1-(2-(quinolin-6-yl)acetyl)piperidin-4-yl)-3,4-dihydroquinoxaline-2(1H)-one] | − |
| CC(C)(C)c1ccc(CC(=O)N2CCC(N3CC(=O)Nc4ccccc43)CC2)cc1 [GEN1-122, 4-(1-(2-(4-(tert-butyl)phenyl)acetyl)piperidin-4-yl)-3,4-dihydroquinoxaline-2(1H)-one] | + |
| O=C(Cc1ccc(C(F)(F)F)cc1)N1CCC(n2c(=O)c(=O)[nH]c3ccccc32)CC1 [GEN1-127, 1-(1-(2-(4-(trifluoromethyl)phenyl)acetyl)piperidin-4-yl)-1,4-dihydroquinoxaline-2,3-dione] | + |
| O=C(N1CCC(n2c(=O)[nH]c3cccc(C(F)(F)F)c32)CC1)C1(c2ccc(C(F)(F)F)cc2)CC1 [GEN1-146, 7-(trifluoromethyl)-1-(1-(1-(4-(trifluoromethyl)phenyl)cyclopropane-1-carbonyl)piperidin-4-yl)-1,3-dihydro-2H-benzo[d]imidazol-2-one] | + |
| O=C(Cc1ccc(C(F)(F)F)cc1)N1CCC(N2C/C(=N\O)Nc3ccccc32)CC1 [GEN1-150, (E)-1-(4-(3-(hydroxyimino)-3,4-dihydroquinoxaline-1(2H)-yl)piperidin-1-yl)-2-(4-(trifluoromethyl)phenyl)ethane-1-one] | − |
| O=C(Nc1ccccn1)NC1CCN(C(=O)Cc2ccc(C(F)(F)F)cc2)CC1 [GEN1-163, 1-(pyridin-2-yl)-3-(1-(2-(4-(trifluoromethyl)phenyl)acetyl)piperidin-4-yl)urea] | − |
| NC(=O)N(c1ccccn1)C1CCN(C(=O)Cc2ccc(C(F)(F)F)cc2)CC1 [GEN1-164, 1-(pyridin-2-yl)-1-(1-(2-(4-(trifluoromethyl)phenyl)acetyl)piperidin-4-yl)urea] | − |
| CC(=O)N1CCN(C2CCN(C(=O)Cc3ccc(C(F)(F)F)cc3)CC2)c2ccccc21 [GEN1-243, 1-(4-(4-acetyl-3,4-dihydroquinoxaline-1(2H)-yl)piperidin-1-yl)-2-(4-(trifluoromethyl)phenyl)ethenone] | + |
